# Data published in ChEMBL document CHEMBL1201862, “PubChem BioAssay data set” (2004).
# Calls of active or inactive are those of the source.
# Key:
# [1] = target: Luciferin 4-monooxygenase (Photinus pyralis, UniProt P08659); assay: firefly luciferase enzyme inhibitors, dose response, biochemical, luminescence (AID 1891)
# [2] = Luminescence Cell-Based Dose Confirmation HTS to Identify Inhibitors of Platelet Dense Granule Release. [Related pubchem assays: 1663 (Primary HTS), 1678 (Summary of Project)]; format: functional
# [3] = target: Peroxisome proliferator-activated receptor gamma/Nuclear receptor coactivator 2 (Homo sapiens, UniProt P37231); assay: (§1) TR-FRET dose response biochemical High Throughput Screening assay for agonists of the steroid receptor coactivator 2 (SRC-2) recruitment by the peroxisome proliferator-activated receptor gamma (PPAR gamma): non-selective agonists. [Related pubchem assays: 1297, 1032 ]; format: functional
# [4] = target: Peroxisome proliferator-activated receptor gamma/Nuclear receptor coactivator 1 (Homo sapiens, UniProt P37231); assay: as §1, with “1 (SRC-1)” for “2 (SRC-2)”, “assays (depositor defined):AID1300, AID1808, AID504735, AID631]” for “assays: 1297, 1032 ]”; format: protein assay
# [5] = target: Peroxisome proliferator-activated receptor gamma/Nuclear receptor coactivator 3 (Homo sapiens, UniProt P37231); assay: as §1, with “3 (SRC-3)” for “2 (SRC-2)”, “1301 (Confirmation screen.), 1048 (Primary screen.)]” for “1297, 1032 ]”; format: functional
# [6] = target: T1, Short transient receptor potential channel 4 (Mus musculus, UniProt Q9QUQ5); assay: mouse TRPC4 channel inhibitors, dose response, cell-based, HEK293 TRPC4/mu-opioid, Fluo-4 calcium (AID 434942); format: functional;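 further: potency of inhibitors blocking the TRPC4 calcium response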
# T1 sequence (Q9QUQ5 whole entry): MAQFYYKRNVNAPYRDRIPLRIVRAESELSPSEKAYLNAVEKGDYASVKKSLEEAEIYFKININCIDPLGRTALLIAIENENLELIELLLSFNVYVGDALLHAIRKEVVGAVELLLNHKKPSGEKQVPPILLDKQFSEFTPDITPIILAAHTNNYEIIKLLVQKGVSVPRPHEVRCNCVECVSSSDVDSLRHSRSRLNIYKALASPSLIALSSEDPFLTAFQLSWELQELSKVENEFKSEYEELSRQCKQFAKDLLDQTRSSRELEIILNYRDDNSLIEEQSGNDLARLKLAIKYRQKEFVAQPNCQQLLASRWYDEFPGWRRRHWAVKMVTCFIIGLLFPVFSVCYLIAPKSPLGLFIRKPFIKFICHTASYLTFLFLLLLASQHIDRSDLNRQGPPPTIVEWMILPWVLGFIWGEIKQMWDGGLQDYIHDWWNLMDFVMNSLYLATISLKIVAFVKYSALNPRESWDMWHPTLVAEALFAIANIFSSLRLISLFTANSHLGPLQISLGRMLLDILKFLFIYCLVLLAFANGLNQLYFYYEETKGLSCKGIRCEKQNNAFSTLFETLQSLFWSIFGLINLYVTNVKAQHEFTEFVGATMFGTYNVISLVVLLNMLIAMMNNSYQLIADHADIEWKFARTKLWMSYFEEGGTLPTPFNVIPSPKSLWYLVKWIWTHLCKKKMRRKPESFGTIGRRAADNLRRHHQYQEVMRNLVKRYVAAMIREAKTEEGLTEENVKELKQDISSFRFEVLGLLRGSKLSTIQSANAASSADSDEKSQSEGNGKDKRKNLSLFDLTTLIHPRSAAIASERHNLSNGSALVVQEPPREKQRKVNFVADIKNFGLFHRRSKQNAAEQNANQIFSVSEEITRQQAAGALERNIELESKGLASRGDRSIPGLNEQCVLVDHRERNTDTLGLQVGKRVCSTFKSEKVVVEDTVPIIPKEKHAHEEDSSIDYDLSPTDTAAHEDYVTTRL
# Coagulation factor XII = target: T2, Coagulation factor XII (Homo sapiens, UniProt P00748); format: functional;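 further: activated factor XIIa alpha cleaving a fluorogenic AMC peptide substrate; inhibitor potency from loss of enzyme activity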
# T2 sequence (P00748 whole entry): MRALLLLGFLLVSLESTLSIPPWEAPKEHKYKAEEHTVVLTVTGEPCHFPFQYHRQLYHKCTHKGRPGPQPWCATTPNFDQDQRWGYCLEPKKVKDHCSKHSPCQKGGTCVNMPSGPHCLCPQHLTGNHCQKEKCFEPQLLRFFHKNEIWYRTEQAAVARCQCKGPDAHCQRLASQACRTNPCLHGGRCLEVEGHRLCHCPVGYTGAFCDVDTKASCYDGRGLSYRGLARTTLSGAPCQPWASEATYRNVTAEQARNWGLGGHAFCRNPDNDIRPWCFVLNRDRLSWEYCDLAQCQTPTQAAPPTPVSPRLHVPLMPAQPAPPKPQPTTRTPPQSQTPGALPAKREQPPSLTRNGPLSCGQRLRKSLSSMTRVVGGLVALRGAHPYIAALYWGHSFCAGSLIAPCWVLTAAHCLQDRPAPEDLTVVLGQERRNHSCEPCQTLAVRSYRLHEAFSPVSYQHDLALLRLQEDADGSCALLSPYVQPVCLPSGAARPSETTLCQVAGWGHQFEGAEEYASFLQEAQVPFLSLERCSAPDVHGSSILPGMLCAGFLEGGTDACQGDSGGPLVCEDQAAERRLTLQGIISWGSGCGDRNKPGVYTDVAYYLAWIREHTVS
# [7] = target: T3, RNA-binding protein pos-1 (Caenorhabditis elegans, UniProt G5EF15); assay: inhibitors of POS-1/mex-3 RNA binding, dose response, biochemical, fluorescence polarization (AID 1964);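 further: purified POS-1 fused to maltose binding protein made in E. coli; potency of compounds blocking POS-1 binding to fluorescent RNA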
# T3 sequence (G5EF15 whole entry): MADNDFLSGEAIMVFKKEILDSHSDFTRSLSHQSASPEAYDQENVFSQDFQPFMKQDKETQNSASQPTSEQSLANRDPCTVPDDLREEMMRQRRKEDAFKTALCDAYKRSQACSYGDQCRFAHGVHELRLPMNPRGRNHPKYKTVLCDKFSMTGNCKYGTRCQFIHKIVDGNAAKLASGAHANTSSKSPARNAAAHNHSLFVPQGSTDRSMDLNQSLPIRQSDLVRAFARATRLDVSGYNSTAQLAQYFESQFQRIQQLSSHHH
# [8] = target: T4, Zinc finger protein mex-5 (Caenorhabditis elegans, UniProt Q9XUB2); assay: MEX-5/TCR-2 RNA interaction inhibitors, dose response, biochemical, C. elegans, fluorescence polarization (AID 1960)
# T4 sequence (Q9XUB2 whole entry): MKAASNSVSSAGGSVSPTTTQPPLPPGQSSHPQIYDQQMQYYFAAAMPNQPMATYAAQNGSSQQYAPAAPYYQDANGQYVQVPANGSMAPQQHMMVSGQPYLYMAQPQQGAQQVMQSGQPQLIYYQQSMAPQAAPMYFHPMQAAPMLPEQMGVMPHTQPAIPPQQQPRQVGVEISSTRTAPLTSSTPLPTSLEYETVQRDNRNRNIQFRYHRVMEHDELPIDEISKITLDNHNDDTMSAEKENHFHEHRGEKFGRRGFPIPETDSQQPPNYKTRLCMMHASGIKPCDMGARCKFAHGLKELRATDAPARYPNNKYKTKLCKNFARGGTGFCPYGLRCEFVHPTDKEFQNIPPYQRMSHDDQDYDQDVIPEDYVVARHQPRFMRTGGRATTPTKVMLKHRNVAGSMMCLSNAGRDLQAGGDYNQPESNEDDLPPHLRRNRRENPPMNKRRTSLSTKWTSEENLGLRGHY
# [9] = target: T5, Carboxy-terminal domain RNA polymerase II polypeptide A small phosphatase 1 (Homo sapiens, UniProt Q9GZU7); assay: inhibitors of CTDSP1, concentration-response testing, biochemical assay, absorbance-based, actives from ultra-high-throughput screening (AID 540297); format: functional
# T5 sequence (Q9GZU7 whole entry): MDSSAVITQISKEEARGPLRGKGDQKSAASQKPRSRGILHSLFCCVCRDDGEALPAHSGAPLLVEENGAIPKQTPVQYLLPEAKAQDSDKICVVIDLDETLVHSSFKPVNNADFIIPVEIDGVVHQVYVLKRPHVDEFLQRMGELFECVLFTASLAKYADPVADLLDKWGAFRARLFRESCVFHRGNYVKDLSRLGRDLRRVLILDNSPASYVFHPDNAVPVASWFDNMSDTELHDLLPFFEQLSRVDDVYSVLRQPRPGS
# Large T antigen = Large T antigen (Simian virus 40, UniProt P03070); format: functional, Betapolyomavirus macacae;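 further: Confirmatory-stage PubChem screen for compounds that inhibit SV40 T antigen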
# Genome polyprotein = Genome polyprotein (dengue virus type 2, UniProt P29990); assay: Dengue-2 NS5 methyltransferase inhibitors, primary screen, biochemical, confirmation dose response (AID 588689); format: functional
# [10] = inhibitors of SNCA 5'UTR-driven reporter translation, confirmation, H4 neuroglioma cells, luminescence (AID 1988); format: functional, cell-based
# [11] = Luminescence Cell-Based Dose Response HTS to Identify Inhibitors of 5'UTR Stem-Loop Driven Prion Protein mRNA Translation in H4 Neuroglioblastoma Cells. [Related pubchem assays: 1827 (Project Summary), 1813 (Primary HTS)]; format: functional
# Chain of Luciferin 4-monooxygenase (P08659 whole entry): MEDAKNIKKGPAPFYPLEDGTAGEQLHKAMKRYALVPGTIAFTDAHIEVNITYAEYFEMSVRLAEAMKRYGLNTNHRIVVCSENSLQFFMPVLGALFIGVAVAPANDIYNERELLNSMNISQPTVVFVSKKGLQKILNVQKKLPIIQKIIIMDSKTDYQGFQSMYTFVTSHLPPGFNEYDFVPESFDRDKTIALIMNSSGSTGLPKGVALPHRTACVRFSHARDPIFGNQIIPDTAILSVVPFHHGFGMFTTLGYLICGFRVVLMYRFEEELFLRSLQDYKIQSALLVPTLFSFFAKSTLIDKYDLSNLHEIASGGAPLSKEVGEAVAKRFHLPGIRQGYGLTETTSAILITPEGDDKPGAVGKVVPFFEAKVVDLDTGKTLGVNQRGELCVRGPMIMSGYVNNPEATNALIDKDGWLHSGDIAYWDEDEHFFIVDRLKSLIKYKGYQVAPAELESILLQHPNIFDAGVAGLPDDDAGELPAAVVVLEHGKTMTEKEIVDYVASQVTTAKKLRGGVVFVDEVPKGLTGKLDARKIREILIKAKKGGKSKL
# Chain of Peroxisome proliferator-activated receptor gamma/Nuclear receptor coactivator 1 (P37231 whole entry): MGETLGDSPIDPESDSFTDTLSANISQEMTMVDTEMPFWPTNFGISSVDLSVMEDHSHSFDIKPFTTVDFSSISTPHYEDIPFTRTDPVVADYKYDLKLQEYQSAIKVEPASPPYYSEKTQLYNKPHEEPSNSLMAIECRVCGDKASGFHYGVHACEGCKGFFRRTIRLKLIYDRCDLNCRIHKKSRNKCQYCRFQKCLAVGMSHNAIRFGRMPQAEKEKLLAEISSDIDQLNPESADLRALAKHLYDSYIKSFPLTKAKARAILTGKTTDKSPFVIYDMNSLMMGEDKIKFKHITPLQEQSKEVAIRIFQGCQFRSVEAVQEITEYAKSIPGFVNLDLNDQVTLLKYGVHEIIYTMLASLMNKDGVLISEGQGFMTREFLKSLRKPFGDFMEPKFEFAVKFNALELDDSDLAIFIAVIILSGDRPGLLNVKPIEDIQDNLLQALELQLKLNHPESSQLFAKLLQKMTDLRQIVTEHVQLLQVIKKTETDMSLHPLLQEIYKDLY
# Chain of Peroxisome proliferator-activated receptor gamma/Nuclear receptor coactivator 1 (Q15788 whole entry, further chain): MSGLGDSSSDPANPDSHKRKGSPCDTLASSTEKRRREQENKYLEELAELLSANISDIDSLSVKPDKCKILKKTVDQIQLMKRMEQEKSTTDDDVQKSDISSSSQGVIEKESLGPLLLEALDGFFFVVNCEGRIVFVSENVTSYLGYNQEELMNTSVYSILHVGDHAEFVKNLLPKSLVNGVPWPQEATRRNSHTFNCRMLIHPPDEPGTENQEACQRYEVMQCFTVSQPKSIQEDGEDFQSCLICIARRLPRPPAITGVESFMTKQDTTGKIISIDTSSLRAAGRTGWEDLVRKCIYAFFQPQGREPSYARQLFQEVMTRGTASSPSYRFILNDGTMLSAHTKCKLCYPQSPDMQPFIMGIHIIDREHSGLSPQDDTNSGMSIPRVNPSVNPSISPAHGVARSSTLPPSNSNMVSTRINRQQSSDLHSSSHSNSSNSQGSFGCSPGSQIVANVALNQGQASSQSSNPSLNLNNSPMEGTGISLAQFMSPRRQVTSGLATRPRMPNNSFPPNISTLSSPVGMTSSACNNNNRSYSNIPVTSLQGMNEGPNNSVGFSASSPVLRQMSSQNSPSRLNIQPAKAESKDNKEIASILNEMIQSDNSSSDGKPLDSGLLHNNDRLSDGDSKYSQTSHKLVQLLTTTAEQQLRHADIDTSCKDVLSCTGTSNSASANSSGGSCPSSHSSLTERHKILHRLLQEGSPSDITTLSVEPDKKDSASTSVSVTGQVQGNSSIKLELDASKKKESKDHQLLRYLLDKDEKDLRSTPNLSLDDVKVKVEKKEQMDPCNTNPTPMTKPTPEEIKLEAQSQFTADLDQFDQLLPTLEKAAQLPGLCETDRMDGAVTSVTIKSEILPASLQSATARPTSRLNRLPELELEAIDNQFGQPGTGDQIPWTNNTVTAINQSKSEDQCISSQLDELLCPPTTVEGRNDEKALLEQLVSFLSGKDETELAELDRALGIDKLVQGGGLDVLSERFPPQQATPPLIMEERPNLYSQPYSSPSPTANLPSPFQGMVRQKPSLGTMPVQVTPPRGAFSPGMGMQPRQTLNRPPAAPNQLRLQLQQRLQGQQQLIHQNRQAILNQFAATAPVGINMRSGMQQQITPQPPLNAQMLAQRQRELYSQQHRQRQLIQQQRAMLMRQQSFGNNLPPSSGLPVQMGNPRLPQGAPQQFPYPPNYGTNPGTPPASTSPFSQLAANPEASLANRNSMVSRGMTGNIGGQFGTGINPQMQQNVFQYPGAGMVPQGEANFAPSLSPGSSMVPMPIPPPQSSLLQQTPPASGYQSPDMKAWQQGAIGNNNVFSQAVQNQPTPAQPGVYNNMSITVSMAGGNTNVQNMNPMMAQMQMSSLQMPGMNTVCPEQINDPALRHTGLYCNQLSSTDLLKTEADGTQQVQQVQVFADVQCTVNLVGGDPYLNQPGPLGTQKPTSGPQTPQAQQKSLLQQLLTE
# Chain of Peroxisome proliferator-activated receptor gamma/Nuclear receptor coactivator 2 (P37231 whole entry): as the sequence (P37231 whole entry) above
# Chain of Peroxisome proliferator-activated receptor gamma/Nuclear receptor coactivator 2 (Q15596 whole entry, further chain): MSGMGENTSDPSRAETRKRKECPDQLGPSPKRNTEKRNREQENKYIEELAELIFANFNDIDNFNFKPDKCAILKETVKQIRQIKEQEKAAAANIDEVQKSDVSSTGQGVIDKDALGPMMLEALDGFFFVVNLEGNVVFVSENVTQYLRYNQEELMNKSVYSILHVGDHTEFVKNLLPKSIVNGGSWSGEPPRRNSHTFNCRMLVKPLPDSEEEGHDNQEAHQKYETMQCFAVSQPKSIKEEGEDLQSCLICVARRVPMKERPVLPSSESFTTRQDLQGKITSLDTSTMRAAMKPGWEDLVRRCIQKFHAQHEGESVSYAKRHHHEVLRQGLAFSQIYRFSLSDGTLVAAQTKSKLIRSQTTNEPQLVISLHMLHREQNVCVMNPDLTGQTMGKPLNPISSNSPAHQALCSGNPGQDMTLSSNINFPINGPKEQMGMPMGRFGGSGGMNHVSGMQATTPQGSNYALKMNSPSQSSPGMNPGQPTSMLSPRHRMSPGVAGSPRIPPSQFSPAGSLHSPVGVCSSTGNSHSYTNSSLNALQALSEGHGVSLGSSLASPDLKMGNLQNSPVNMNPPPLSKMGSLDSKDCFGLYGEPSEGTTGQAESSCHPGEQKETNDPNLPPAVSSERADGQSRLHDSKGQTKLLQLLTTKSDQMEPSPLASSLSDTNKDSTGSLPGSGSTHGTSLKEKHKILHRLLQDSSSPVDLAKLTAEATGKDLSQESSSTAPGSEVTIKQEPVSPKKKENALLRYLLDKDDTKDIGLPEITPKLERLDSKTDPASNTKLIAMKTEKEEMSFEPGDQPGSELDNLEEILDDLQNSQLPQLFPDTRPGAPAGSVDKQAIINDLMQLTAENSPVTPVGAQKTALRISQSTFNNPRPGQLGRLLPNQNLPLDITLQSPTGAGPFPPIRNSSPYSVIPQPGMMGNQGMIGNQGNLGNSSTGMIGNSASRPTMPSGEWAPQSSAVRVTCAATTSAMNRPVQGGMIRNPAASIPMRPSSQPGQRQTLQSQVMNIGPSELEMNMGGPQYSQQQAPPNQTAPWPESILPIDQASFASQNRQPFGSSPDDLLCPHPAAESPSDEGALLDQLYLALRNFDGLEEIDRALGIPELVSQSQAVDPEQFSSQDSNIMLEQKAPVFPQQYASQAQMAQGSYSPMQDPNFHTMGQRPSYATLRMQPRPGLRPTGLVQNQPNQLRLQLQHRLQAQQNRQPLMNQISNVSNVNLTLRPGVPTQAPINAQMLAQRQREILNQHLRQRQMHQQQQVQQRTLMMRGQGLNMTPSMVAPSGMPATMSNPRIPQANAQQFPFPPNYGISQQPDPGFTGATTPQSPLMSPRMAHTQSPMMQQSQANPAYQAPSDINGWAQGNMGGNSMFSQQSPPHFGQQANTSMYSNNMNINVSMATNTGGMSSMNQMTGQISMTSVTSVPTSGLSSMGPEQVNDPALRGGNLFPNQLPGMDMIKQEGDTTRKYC
structure (smiles),measurement,setting,value
COC(=O)c1sccc1NC(=O)Nc1cccc(C)c1,EC50,[1],0.21 µM (active)
same,EC50,[2],2.5 µM (active)
Cc1ccc(-c2nc(C[S+]([O-])CC(=O)NCCCN3CC(C)CC(C)C3)c(C)o2)cc1 (stereo not given),EC50,[1],> 112 µM (not active)
same,EC50,[2],> 112 µM (not active)
Cn1c(=O)cc(SCC(=O)NCC2CCCO2)c2ccccc21 (stereo not given),EC50,[3],> 79.4 µM (not active)
same,EC50,[4],> 79.4 µM (inactive)
same,EC50,[5],> 79.4 µM (not active)
COc1ccc(O)c(CN2CCCC(C(=O)c3sccc3C)C2)c1 (stereo not given),EC50,[6],3.35 µM (active)
CSCCNC(=O)c1ccc(OC2CCN(CCc3ccccc3)CC2)cc1,EC50,[6],0.473 µM (active)
CN(Cc1ccccc1)c1ccc(S(=O)(=O)N2CCOCC2)cn1,EC50,[1],> 112 µM (not active)
same,EC50,[2],> 112 µM (not active)
COc1ccc(C(=O)C2=C(O)C(=O)N(c3cc(C)on3)C2c2ccccc2OC)cc1 (stereo not given),EC50,[3],18.2 µM (not active)
same,EC50,[4],22.9 µM (inactive)
same,EC50,[5],> 79.4 µM (not active)
O=C(CN1C(=O)c2cccc3cccc1c23)NCc1ccc2c(c1)OCO2,IC50,Coagulation factor XII,> 50 µM (inactive)
CCOc1ccc(N2C(=O)S/C(=C\c3cccn3C)C2=O)cc1,EC50,[7],> 300 µM (inconclusive)
same,EC50,[1],> 112 µM (not active)
same,EC50,[8],> 300 µM (not active)
same,EC50,[2],> 112 µM (not active)
Fc1cccc(Nc2c3c(nc4ccccc24)CCC3)c1,EC50,[6],1.19 µM (active)
N=C1/C(=C/c2ccc(Br)o2)C(=O)N=C2SC(CC(=O)N3CCCC3)=NN12,IC50,[9],> 80 µM (inactive)
same,IC50,Large T antigen,58.3 µM (active)
CCOC(=O)c1ccc2c(c1)nc(S)n2CC,EC50,[3],15.7 µM (not active)
same,EC50,[4],17.5 µM (inactive)
same,EC50,[5],> 79.4 µM (not active)
Cn1c(S)nnc1-c1sc2cc(C(F)(F)F)cnc2c1-c1ccccc1,EC50,[3],5.17 µM (active)
same,EC50,[4],3.6 µM (active)
same,EC50,[5],16.3 µM (not active)
C/C(=N\Nc1ccc(Cl)c(C(=O)O)c1)c1ccc[nH]1,EC50,[7],> 300 µM (not active)
same,EC50,[8],> 150 µM (not active)
same,IC50,[9],4.28 µM (active)
COC(=O)c1c(N=C(S)Nc2ccccc2Cl)sc(C)c1C,EC50,[3],28.6 µM (not active)
same,EC50,[4],84.9 µM (inactive)
same,EC50,[5],> 79.4 µM (not active)
CCCn1c(=O)c2ccccc2n2c(SCCOc3ccccc3)nnc12,EC50,[6],5.96 µM (active)
COc1ccc(Cl)cc1N=C(N)Nc1nc(C)cc(C)n1,EC50,[6],2.11 µM (active)
Cc1ccc(CSc2nnc3c(n2)OC2(Nc4ccccc4-3)C(=O)Nc3ccc(F)cc32)cc1 (stereo not given),IC50,Genome polyprotein,25 µM (active)
O=C(Cn1cnc2c(nnn2-c2cccc(Cl)c2)c1=O)NCc1ccccc1,IC50,[9],8.16 µM (active)
Cc1ccsc1/C=N/Nc1nc(O)nnc1C,EC50,[1],0.519 µM (active)
same,EC50,[2],5.47 µM (active)
c1ccc(-c2nc(-c3cccs3)[nH]c2-c2ccccc2)cc1,EC50,[3],32.3 µM (not active)
same,EC50,[4],42.6 µM (inactive)
same,EC50,[5],> 79.4 µM (not active)
C(=N\c1ccc(N2CCOCC2)cc1)/c1c[nH]c2ccccc12,IC50,Large T antigen,4.34 µM (active)
O=C(CSc1nc2sc3c(c2c(=O)n1-c1ccccc1)CCCC3)N/N=C/c1ccc(C(=O)O)cc1,IC50,[9],25.9 µM (active)
CCOc1ccccc1-c1nnc(S)o1,EC50,[3],35.6 µM (not active)
same,EC50,[4],> 2.94 µM (inactive)
same,EC50,[5],> 79.4 µM (not active)
Cc1ccc(S(=O)(=O)N2CCCOC2CNC(=O)C(=O)NCCc2c[nH]c3ccccc23)cc1 (stereo not given),IC50,Large T antigen,86.8 µM (active)
O=S(=O)(Nc1ccccc1)c1ccc(-c2csnn2)cc1,IC50,Coagulation factor XII,> 50 µM (inactive)
O=C(OCC(=O)c1ccc(Cl)s1)c1ccc2ccccc2n1,IC50,Coagulation factor XII,> 50 µM (inactive)
COc1cc(/C=N/Nc2nc3ccccc3[nH]2)cc(OC)c1O,IC50,Large T antigen,7.09 µM (active)
O=C(O)c1ccc(N=C(NS(=O)(=O)c2ccc(Cl)cc2)c2ccccc2)cc1,IC50,Coagulation factor XII,> 50 µM (inactive)
COc1ccc(-c2nc(C[S+]([O-])CC(=O)NCCc3ccc(C)cc3)c(C)o2)cc1OC (stereo not given),EC50,[1],> 112 µM (not active)
same,EC50,[2],> 112 µM (not active)
O=[N+]([O-])c1cccc(-c2nnc(C3CC3)o2)c1,EC50,[6],3.76 µM (active)
c1ccc2nc(-c3nc4ccccc4[nH]3)ccc2c1,EC50,[10],9.4 µM (active)
same,EC50,[11],11.1 µM (inconclusive)
same,EC50,[1],0.49 µM (active)
same,EC50,[2],2.16 µM (active)
